Series [1] has as its system panel of experts in the sensory evaluation of foods and beverages. The series can be described thus: Sensory evaluation of sweetness linger and taste characteristics. The arrangement: key: 0: no sweetness linger; 1: very slight sweetness linger; 2: slight sweetness linger; 3: moderate sweetness linger; 4: moderately high sweetness linger; 5: high sweetness linger. The series is classed as in vivo. As for the experimental part:
Sensory evaluation of the samples prepared in Example Set G was carried out under the following protocol, similar to that described hereinabove. In this test protocol, none of the samples were swallowed. All samples were expectorated and the mouth was rinsed with water after the tasting. Immediately upon sensing maximal sweetness, the sample was expectorated, the mouth was rinsed with water and the rate of sweetness decay (“Sweetness Linger”) was measured, where attention was focused on the sweetness 3-4 min after the water rinse. After sample tasting was complete, a salty oyster cracker was chewed followed by a water rinse, and at least 5 minutes followed before tasting the next sample. […]
Sweet taste improving compositions were combined with a REBA solution to determine their effect on sweetness linger. Screening of the initial sample, or further dilutions, allowed identification of concentrations which were just above-threshold, herein defined as “near-threshold concentrations.” The near-threshold additive concentrations, a 6- to 100-fold higher higher additive concentration (depending on the off-taste intensity), and a mid-level additive concentration (halfway between the near-threshold and higher additive concentration) were evaluated to determine the effect on sweetness linger of a REBA solution. […]

Series [2] can be described thus: Rate of dissolution of rebaudioside A polymorph and amorphous forms in H2O. The series is classed as physicochemical. The text has this: The purification of rebaudioside A by crystallization as described above results in the formation of at least three different polymorphs: Form 1: a rebaudioside A hydrate; Form 2: an anhydrous rebaudioside A; and Form 3: a rebaudioside A solvate. In addition to the at least three polymorph forms of rebaudioside A, the purification of rebaudioside A may result in the formation of an amorphous form of rebaudioside A, Form 4. The aqueous organic solution and temperature of the purification process influence the resulting polymorph and amorphous forms in the substantially pure rebaudioside A composition. FIGS. 1-5 are exemplary powder x-ray diffraction (XRPD) scans of the polymorph and amorphous forms of rebaudioside A: Form 1 (hydrate), Form 2 (anhydrate), Form 3A (methanol solvate), Form 3B (ethanol solvate), and Form 4 (amorphous), respectively.

For the substance rebaudioside A, the “Sweetness Linger” value in series [1] (Example Set G: citric acid/potassium citrate composition equivalent to diet lemon-lime beverage, scale 0-5, sweetness 3-4 min after water rinse) is 5; in series [1] (Example Set H: carbon-treated water with phosphoric acid (75%) to pH 2.4-2.5, scale 0-5), 5. As for rebaudioside A [Form 1], the “Rate of dissolution in H2O at 25° C.” value in series [2] is given as “Very low (<0.2%/60 %/60 minutes”.

Turning to rebaudioside A [Form 2], in series [2], the “Rate of dissolution in H2O at 25° C.” value is on record as “Intermediate (<30%/5 %/5 minutes”.

The values above are taken from patent US20080108710A1, “High-Potency Sweetener Composition With Preservative and Compositions Sweetened Therewith” (THE COCA-COLA COMPANY, priority 2006, published 2008).
